The source of these data is patent US10935552B2, “Aie luminogens for visualization and treatment of cancer” (THE HONG KONG UNIVERSITY OF SCIENCE AND TECHNOLOGY, priority 2015, dated 2021).

By viability is commonly meant the share of living cells, or the viability signal relative to a control. High values mean less harm to the cells, low ones more harm to the cells.

Structures can show the parent of a compound that is named as a salt.

The nature of series [1]: MTT cell viability assay, HeLa cells. The class given is cell-based, human. The following applies: human, HeLa cells, 15 μM, MTT. The method, then: (§1) Hela cells were incubated with different concentrations of Naph-IQ in culture medium for 24 hours.
(§2) Before employing AIE-LysoY as a fluorescent visualizer of lysosome, a 3-(4,5-dimethyl-2-thiazolyl)-2,5-diphenyltetrazolium bromide (MTT) cell proliferation assay was first conducted to evaluate its cytotoxicity. […] The good biocompatibility of AIE-LysoY enables its application as a fluorescent tracer to follow the autophagic process of lysosome.
On the technique in general: Tetrazolium assays rely on reduction of a dye to a coloured formazan, in cell work by metabolically active cells.

In series [2] the test system is HeLa cells. The experiment in a line: Photostability by continuous confocal scanning of stained HeLa cells. In kind it is cell-based, human. From the text: Compared with LTR, the working concentration of AIE-LysoY is much higher. LTR is not more sensitive than AIE-LysoY. As mentioned previously, LTR can only be used at low concentrations to avoid the ACQ effect. At such a low working concentration, the fluorescent probes molecularly disperse in the organelle and can be easily photooxidized by continuous excitation light, resulting in the low photostability of these probes. In order to evaluate the photostability of AIE-LysoY, a confocal microscope (Zeiss laser scanning confocal microscope LSM7 DUO) was applied to continuously scan cells stained by AIE-LysoY. The photostability of LTR was also measured for comparison. The power of excitation light (405 nm for AIE-LysoY and 561 nm for LTR) were unified by using a power meter. […] In contrast, the fluorescence intensity from LTR dropped to lower than 50% of its initial value after only 25 scans (FIG. 28, hollow circle line). The slight fluctuation of fluorescence signal can be ascribed to the dynamic movement of lysosome in living cells. The excellent photostability of AIE-LysoY may stem from its nanoparticles nature in lysosome imaging, which can protect the chromophore inside the particles from being photooxidzied. In this way, the fluorescence of […] can pertain after a long-time irradiation. […]

The subject of the next series is lysosome. The experiment in a line: Lysosome imaging in HeLa cells, co-staining with LTR. The class given is cell-based, human. The following applies: HeLa. The procedure:
Then, AIE-LysoY was applied to lysosome imaging and its lysosome-targeting performance was assessed by fluorescence microscope. HeLa cells were stained with 10 μM of AIE-LysoY for 10 min, followed by washing away the abundant molecules of AIE-LysoY and incubation with 50 nM of LTR for 30 min. […] The fluorescence of AIE-LysoY overlaps perfectly with that of LTR, indicating the lysosome-targeting of AIE-LysoY.
Quantitative analysis of the degree of overlapping of these two fluorescence signals by Pearson's coefficient (Rr), which depicts the degree of linear dependence between two variables, gives an overlapping coefficient of 0.90. The high Rr value proves that AIE-LysoY is a lysosome-selective probe. […] Changing the staining time from 10 min to 60 min, the specificity to lysosome is retained, as well as the emission contrast.
To design the lysosome-specific bioprobe, a molecular engineering approach was employed. The precursor of AIE-LysoY, FAS-Br, and two morpholine-functionalized AIEgens, TPE-2Mor and Nred-mor were prepared and applied to cell imaging. The molecular structures of TPE-2mor and Nred-mor are shown below: […]

The subject of another series is mitochondria. The experiment in a line: Co-staining with commercial organelle trackers in HeLa cells (mitochondria staining). In kind it is cell-based, human. The procedure:
The HeLa cells were grown overnight on a 35 mm petri dish with a cover slip. Then the HeLa cells were stained with 200 nM TPE-IQ-2O and Mito-tracker red (50 nM)/Lyso-tracker red (50 nM)/DAPI (500 nM) for 20 mins.
The DMSO solution of DPA-IQ was almost non-emissive while the aggregation state powder of this material emits strong green luminescence upon the UV excitation.
The commercially available MitoTracker Red FM is co-stained as a control together with Naph-IQ.

Series [3] deals with HeLa cells. The experiment in a line: MTT cell viability assay, HeLa cells. The class given is cell-based, human. The following applies: HeLa, different concentrations, 24 hrs. The method, then: as §1, §2
For a further series, the system named is PC-9 cells. The experiment in a line: Cell imaging, PC-9 cells. In kind it is cell-based, human. The note with it: PC-9, 200 nM DPA-IQ, 10 min. The procedure: (§3) The PC-9, HepG2, and HCC827 cells were grown overnight on a 35 mm petri dish with a cover slip. The live cells were incubated with 200 nM of TPE-IQ-2O for 20 and 10 mins. In all the experiments, the cancer cells are fluorescent in solely staining.
(§4) HepG2 cells (human hepatocarcinoma cell line), PC-9 cells (human lung adenocarcinoma cell line), Hela cells (human cervical carcinoma cell line), and LX2 cells (normal cell, human hepatic stellate cell line) were stained with 200 nM DPA-IQ for 10 min. Images were taken under the same equipment settings. Scale bar: 30 μm. Excitation wavelength: 400-440 nm.

The test system of another series is HepG2 cells. The experiment in a line: Cell imaging, HepG2 cells. The class given is cell-based, human. The following applies: HepG2, 200 nM DPA-IQ, 10 min. The method, then:
as §3, §4

In a further series the test system is LX2 cells. The experiment in a line: Cell imaging, LX2 normal cells. In kind it is cell-based, human. The note with it: LX2, 200 nM DPA-IQ, 10 min. The procedure: The LX2 cells were grown overnight on a 35 mm petri dish with a cover slip. The live cells were incubated with 200 nM of TPE-IQ-2O for 20 and 10 mins.
as §4

In series [4] the test system is HeLa cells. The experiment in a line: Cell imaging under fluorescent microscope, HeLa cells. The class given is cell-based, human. The following applies: Hela, 200 nM DPA-IQ, 10 min. The method, then: Cell culture: HeLa cells were cultured in the MEM containing 10% FBS and 1% antibiotics (100 units/mL penicillin and 100 µg/mL streptomycin) in a 5% CO2 humidity incubator at 37° C. COS-7, MDA-MB-231, MCF-7, and MDCK-II cells were culture in the DMEM containing 10% FBS and antibiotics (100 units/mL penicillin and 100 µg/mL streptomycin) in a 5% CO2 humidity incubator at 37° C.
Cell imaging: two different kind of cells were grown overnight on a 35 mm petri dish with a cover slip. The live cells were incubated with 200 nM of TPE-IQ-2O for 1, 5, 10, and 20 mins. In a typical experiment, 2 μL of a 10 mM stock solution of TPE-IQ-2O in DMSO was diluted to 2 mL with cell culture medium, followed by further dilution to desired concentration. The cells were imaged under a fluorescent microscope (BX41 Microscope) using the same excitation and emission filters: excitation filter=400-440 nm, dichroic mirror=455 nm, and emission filter=465 nm long pass.
Two different kinds of cells were grown overnight on a 35 mm petri dish with a cover slip. The live cells were incubated with 200 nM of TPE-IQ-20 for 20, 10, 5, and 1 mins. The Hela cells were stained by TPE-IQ-2O; the COS-7 cells were stained by TPE-IQ-2O; the Hela cells and COS-7 cells were co-cultured and stained together by TPE-IQ-2O. Condition: 200 nM (Filter: both close; Channel 5; EX: 400-440 nm; Exposure time: bright field: 1000 ms Fluorescence: 1000 ms.
Two different kinds of cells were grown overnight on a 35 mm petri dish with a cover slip. The live cells were incubated with 200 nM of TPE-IQ-2O for 10 mins. The Hela cells were stained by TPE-IQ-2O; the MDCKII cells were stained by TPE-IQ-2O; the MDA-MB-231 cells and COS-7 cells were co-cultured and stained together by TPE-IQ-2O. Condition: 200 nM 10 mins (Filter: both close; Channel 5; EX: 400-440 nm; Exposure time: bright field: 1000 ms Fluorescence: 1000 ms.
as §4

Series [5] has as its system HeLa cells. The experiment in a line: Cancer cell imaging for HeLa cells by IDA-TPE. In kind it is cell-based, human. The note with it: 10 μM, 30 mins. The method, then:
Cell Culture. HeLa cells were cultured in MEM containing 10% FBS and 1% antibiotics (100 units/mL penicillin and 100 µg/mL streptomycin) in a 5% CO2 humidity incubator at 37° C.
The HeLa cells were grown overnight on a 35 mm petri dish with a cover slip. […] The cells were imaged under a fluorescent microscope (BX41 Microscope) using same excitation and emission filters: excitation filter=330-385 nm, dichroic mirror=420 nm, and emission filter=400 nm long pass.

Series [6] concerns MCF-7 cells. The experiment in a line: Photo-bleaching resistance by continuous scanning of stained MCF-7 cells. The class given is cell-based. The note with it: MCF-7, 2 μM 30 min, 50 scans, total irradiation 3 min, 0.1 mW. The procedure:
In order to determine the working mechanism of TPE-TMX to MCF-7 cells, probes with long-term tracking are highly pursued. To compare the photo-bleaching resistance between TPE-TMX and LTR, continuous scanning of the stained MCF-7 cells by UV irradiation was carried out and the PL intensity at each scan was recorded. These two sets of MCF-7 cells were first incubated in a medium for 24 hrs and then stained with TPE-TMX and LTR at 2 μM for 30 min, respectively. The excitation power from 405 nm and 561 nm channels of the microscope was unified as 0.1 mW. The initial fluorescence intensity for the dyes was normalized and the percentage of intensity loss was calculated.

The subject of series [7] is MCF-7 cells. The experiment in a line: Fluorescence microscopy and long-term tracing of MCF-7 cells treated with TPE-TMX. The class given is cell-based. The following applies: long-term tracing. From the text: To examine this hypothesis, fluorescence microscopy of different cell lines treated with TPE-TMX was undertaken. […] Lysosome is an acidic enzyme enriched organelle responsible for digesting intracellular biomolecules, while TPE-TMX with a basic amino group is more favored to target the lysosomes in cells. Once the molecules are accumulated on the surface of lysosome, their intermolecular motions are restricted, which activates the AIE process and thus lights up the organelle.
The whole cells exclude nuclei are highly emissive after the treatment of TPE-TMX for 192 hrs, which is proposed as autophagy. This mechanism is thought to be a degradation system that is mediated by a unique organelle called the autophagosome and then fuses with lysosome to form an autolysosome. Once the autolysosomes are formed, the cells become dysfunctional and eventually cause cell death. […] This is the first time that autophagy can be fluorescently monitored using a theranostic agent for breast cancer cells.

The conditions of series [8]: cited from earlier work.
In series [9] the test system is HeLa cells. The experiment in a line: Autophagy induction by rapamycin in AIE-LysoY-stained HeLa cells. In kind it is cell-based, human. The following applies: HeLa stained with 10 μM AIE-LysoY, prolonged rapamycin treatment.

For the compound `Oc1cc(OCCCCCCN2CCOCC2)ccc1/C=N/N=C1c2ccccc2-c2ccccc21` [AIE-LysoY, (E)-2-(((9H-fluoren-9-ylidene)hydrazono)methyl)-5-((6-morpholinohexyl)oxy) phenol], in series [1], the viability at 24 h, 15 µM was above 80%. Besides, the “Fluorescence signal after continuous scanning” value with HeLa cells [2] (405 nm, total irradiation time ~6 min) is listed as “almost remain unchanged”. For the same compound, in the series with lysosome (10 μM 10 min, then 50 nM LTR 30 min), the Lysosome targeting result was “selectively accumulates in the dot-shaped lysosomes”. The “Pearson's coefficient (Rr) of overlap with LTR” value in the series on lysosome (10 μM AIE-LysoY, 50 nM LTR) came to 0.90.

For the compound `CCC[n+]1cc2ccc(N(c3ccccc3)c3ccccc3)cc2c(-c2ccccc2)c1-c1ccccc1` [DPA-IQ], the “Mitochondrial staining compared with MitoTracker Red FM” value with mitochondria is given as “can stain the mitochondrial organelle as good as the commercially available MitoTracker Red FM”. For the same compound, the “Cytotoxicity by MTT assay” value in the series with HeLa cells [3] is “low cytotoxicity”. Moreover, the “Emission of stained cells” value with PC-9 cells is reported as “strong emission”; in the series with HepG2 cells it was “strong emission”; in the series on LX2 cells it was “faint emission”; in the series on HeLa cells [4], “strong emission”.

As for `O=C(O)CN(CC(=O)O)Cc1ccc(C(=C(c2ccccc2)c2ccccc2)c2ccccc2)cc1` [IDA-TPE, iminodiacetic acid tetraphenylethene], in the series on HeLa cells [5], the Cell uptake entry is “can go inside the cancer cell” and the “Fluorescence staining of cells” value is given as “can target HeLa cells”.

Consider `CN(C)CCNC(=O)CCc1ccc2n1[B-](F)(F)[N+]1=C(c3ccc[nH]3)C=CC1=C2` [LTR, reference compound], for which the PL signal loss entry in the series on MCF-7 cells [6] is listed as “more than 55%”. For the same compound, the “Fluorescence of stained cells with increasing number of passages” value with MCF-7 cells [7] is “dramatically weakened”. For the same compound, the “Fluorescence intensity relative to initial value” in the series with HeLa cells [2] (561 nm, after 25 scans) is “lower than 50%”.

For `O=C(O)C(F)(F)F` [TFA, trifluoroacetic acid], the pKa entry in series [8] is recorded as “about −0.3”.

`CO[C@H]1C[C@@H]2CC[C@@H](C)[C@@](O)(O2)C(=O)C(=O)N2CCCC[C@H]2C(=O)O[C@H]([C@H](C)C[C@@H]2CC[C@@H](O)[C@H](OC)C2)CC(=O)[C@H](C)/C=C(\C)[C@@H](O)[C@@H](OC)C(=O)[C@H](C)C[C@H](C)/C=C/C=C/C=C/1C` [rapamycin]: in the series on HeLa cells [9], the “Lysosome number (yellow spots)” value was “increased”.
